{"source": "ChEMBL document CHEMBL1151229", "about": "“Isolation and structure of gustastatin from the Brazilian nut tree Gustavia hexapetala” (2004)", "format_in_all_cases": "functional", "key": {"SF-268": {"tested_on": "SF-268", "assay": "Cytotoxicity against human SF268 cells"}, "DU-145": {"tested_on": "DU-145", "assay": "Cytotoxicity against human DU145 cells"}, "NCI-H460": {"tested_on": "NCI-H460", "assay": "Cytotoxicity against human NCI-H460 cells"}, "BXPC-3": {"tested_on": "BXPC-3", "assay": "Cytotoxicity against human BxPC3 cells"}, "KM-20L2": {"tested_on": "KM-20L2", "assay": "Cytotoxicity against human KM20L2 cells"}, "MCF7": {"tested_on": "MCF7", "assay": "Cytotoxicity against human MCF7 cells"}, "P388": {"tested_on": "P388", "assay": "Cytotoxicity against mouse P388 cells"}}}
{"smiles": "C=C(C)[C@@H]1CC[C@]2(C(=O)O)CC[C@]3(C)[C@H](CC[C@@H]4[C@@]5(C)CC[C@H](O)C(C)(C)[C@@H]5CC[C@]43C)[C@@H]12", "note": "[BETULINIC ACID]", "values": [{"measurement": "GI50", "setting": "SF-268", "value": 0.86, "unit": "µg/mL"}, {"measurement": "GI50", "setting": "DU-145", "value": 5, "unit": "µg/mL"}, {"measurement": "GI50", "setting": "NCI-H460", "value": 4.7, "unit": "µg/mL"}, {"measurement": "GI50", "setting": "BXPC-3", "value": 0.85, "unit": "µg/mL"}, {"measurement": "GI50", "setting": "KM-20L2", "value": 3.4, "unit": "µg/mL"}, {"measurement": "GI50", "setting": "MCF7", "value": 1.1, "unit": "µg/mL"}, {"measurement": "GI50", "setting": "P388", "value": "> 10", "unit": "µg/mL"}]}
{"smiles": "CCCCCC(=O)Cc1cc(OC)cc(O)c1C(=O)Oc1cc(CC(=O)CCCCC)c(C(=O)OC)c(OC)c1", "note": "[GUSTASTATIN]", "values": [{"measurement": "GI50", "setting": "SF-268", "value": 7.9, "unit": "µg/mL"}, {"measurement": "GI50", "setting": "DU-145", "value": 5.2, "unit": "µg/mL"}, {"measurement": "GI50", "setting": "NCI-H460", "value": 5.1, "unit": "µg/mL"}, {"measurement": "GI50", "setting": "BXPC-3", "value": "> 10", "unit": "µg/mL"}, {"measurement": "GI50", "setting": "KM-20L2", "value": "> 10", "unit": "µg/mL"}, {"measurement": "GI50", "setting": "MCF7", "value": 6.4, "unit": "µg/mL"}, {"measurement": "GI50", "setting": "P388", "value": "> 10", "unit": "µg/mL"}]}
{"smiles": "COc1cc(C)c2c(=O)c3c(O)cc(OC)cc3oc2c1", "note": "[LICHEXANTHONE]", "values": [{"measurement": "GI50", "setting": "SF-268", "value": 3, "unit": "µg/mL"}, {"measurement": "GI50", "setting": "DU-145", "value": 3.7, "unit": "µg/mL"}, {"measurement": "GI50", "setting": "NCI-H460", "value": 7.1, "unit": "µg/mL"}, {"measurement": "GI50", "setting": "BXPC-3", "value": 2.5, "unit": "µg/mL"}, {"measurement": "GI50", "setting": "KM-20L2", "value": 2, "unit": "µg/mL"}, {"measurement": "GI50", "setting": "MCF7", "value": 4.1, "unit": "µg/mL"}, {"measurement": "GI50", "setting": "P388", "value": "> 10", "unit": "µg/mL"}]}
{"smiles": "C[C@H]1[C@@H](O)[C@@H](C)[C@@]2(O[C@@H]1C)[C@@H](C)[C@H]1OC(=O)[C@]2(C)C(=O)[C@@H]1C", "note": "[PORTENTOL]", "values": [{"measurement": "GI50", "setting": "SF-268", "value": 4.7, "unit": "µg/mL"}, {"measurement": "GI50", "setting": "DU-145", "value": 1.3, "unit": "µg/mL"}, {"measurement": "GI50", "setting": "NCI-H460", "value": 4.7, "unit": "µg/mL"}, {"measurement": "GI50", "setting": "BXPC-3", "value": 7, "unit": "µg/mL"}, {"measurement": "GI50", "setting": "KM-20L2", "value": "> 10", "unit": "µg/mL"}, {"measurement": "GI50", "setting": "MCF7", "value": "> 10", "unit": "µg/mL"}, {"measurement": "GI50", "setting": "P388", "value": "> 10", "unit": "µg/mL"}]}
{"smiles": "CC1(C)C=Cc2cc3ccc(=O)oc3cc2O1", "note": "[XANTHYLETIN]", "values": [{"measurement": "GI50", "setting": "SF-268", "value": 11.2, "unit": "µg/mL"}, {"measurement": "GI50", "setting": "DU-145", "value": 2.9, "unit": "µg/mL"}, {"measurement": "GI50", "setting": "NCI-H460", "value": 9, "unit": "µg/mL"}, {"measurement": "GI50", "setting": "BXPC-3", "value": 5.5, "unit": "µg/mL"}, {"measurement": "GI50", "setting": "KM-20L2", "value": 6.3, "unit": "µg/mL"}, {"measurement": "GI50", "setting": "MCF7", "value": 5.9, "unit": "µg/mL"}, {"measurement": "GI50", "setting": "P388", "value": "> 10", "unit": "µg/mL"}]}
